Experimental findings from patent US6369226B1, “Substituted benzamide inhibitors of rhinovirus 3C protease” (Agouron Pharmaceuticals, Inc., priority 1999, dated 2002) are described below.

The target of one data set is T1, HRV-14 3CP (Human rhinovirus 14, UniProt P03303).
T1 construct: The 2A and 3C protease (3CP) process this polyprotein into its functional viral proteins in HRV
In words: 3CP enzyme inhibition assay. The class given is biochemical. The conditions noted are these: Table 1; Serotype 14; NI = no inhibition. The text has this: 3CP Inhibition Assays and Antiviral Assays The details of the 3CP enzyme assays used and the antiviral assays used are outlined in Dragovich, P. S., Webber, S. E, Babine, R. E., Fuhrman, S. A., Patick, A. K., Matthews, D. A., Lee, C. A., Reich, S. H., Prins, T. J., Marakovits, J. T., Littlefield, E. S., Zhou, R., Tikhe, J., Ford, C. E., Wallace, M. B., Meador, III, J. W., Ferre, R., Brown, E. L., Binford, S. L, Harr, , J. E. V., DeLisle, D. M. and Worland, S. T. Structure-Based Design, Synthesis, and Biological Evaluation of Irreversible Human Rhinovirus 3C Protease Inhibitors. 1. Michael Acceptor Structure-Activity Studies J. Med. Chem. 1998,41, 2806, the disclosure of which is incorporated by reference herein.

Some results are limits rather than exact numbers.

T1 sequence (P03303 1538-1719): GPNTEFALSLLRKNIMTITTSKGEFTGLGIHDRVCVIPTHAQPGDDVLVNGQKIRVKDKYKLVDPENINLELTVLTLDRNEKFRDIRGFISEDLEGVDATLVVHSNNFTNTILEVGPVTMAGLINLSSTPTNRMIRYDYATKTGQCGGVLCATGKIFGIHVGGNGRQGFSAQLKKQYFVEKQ

As to `NC(=O)c1cccc(C=CC(=O)OCc2ccccc2)c1` [Compound 3, 3-(3-Carbamoyl-phenyl)-adrylic acid benzyl ester], the “Kobs/[I]” value on HRV-14 3CP is 25 M⁻¹ s⁻¹. Moreover, the CC50 in the data set on H1-HeLa cells was above 100 µM.

As a reminder, the CC50 is the concentration at which the toxic effect on the cells reaches its halfway point. Low values mean harm at low concentration, high ones better tolerance by the cells.
